Results reported in patent publication US9187413B2, “Peripherally restricted FAAH inhibitors” (The Regents of the University of California, priority 2010, dated 2015).
Read-outs that look alike come from different tables or passages of the source.

Columns and labels:
[1] = system: carrageenan-induced inflammation; assay: Carrageenan-induced hyperalgesia, allodynia and paw edema; type: in vivo, mice; details: Swiss mice, 1 mg-kg^-1, i.p., carrageenan
Protocol: Behavioral tests. We measured nocifensive responses elicited by i.p. injection of acetic acid in male Swiss and C57B1/6 (wild-type or FAAH-deficient) mice^40, intraplantar injection of carrageenan in male Swiss mice^20, intraplantar injection of formalin in male Sprague-Dawley rats^41, and sciatic nerve ligation in male Swiss mice^39.
Behavioral tests Acetic acid-induced writhing was measured in Swiss mice or C57B1/6 mice (wild-type and FAAH-deficient), as described^40 with minor modifications. Briefly, the mice were acclimated to the experimental room for 2 h. Each animal was injected with acetic acid (150 μL, 0.6% in saline) and placed into a glass cylinder. Abdominal stretches (extension of body and hind limbs) were counted for 20 min, starting 5 min after acetic acid injection. […] Behavior was scored by an observer blinded to the treatment conditions. Formalin-induced nociception was assessed in Sprague-Dawley rats, as described^41. The rats were singly housed and kept in a shared holding room under a 12:12 h light:dark cycle. They were given free access to food and water, and allowed to acclimate to the facility for a week before testing. […] They were acclimated to the observation container (clear plexiglas box, 29×29×25 cm) for 15 min before receiving an injection of formalin (50 μL, 5% in saline) into the dorsal surface of the right hind paw. Immediately after formalin injection, the rats were returned to the observation container and nocifensive behavior was recorded for 60 min with a video camera. Recordings were analyzed by observers blinded to treatment conditions. Nocifensive behavior was measured continuously for 60 min^41. […] Each 5-min bin was analyzed for time spent (1) lifting and (2) licking or biting the injected paw. Nocifensive behavior was analyzed using the composite pain score weighted scores technique (CPS-WST1,2) calculated for the entire time of observation (0-60 min) and, separately, for the first (0-10 min) and second phase (10-60 min) of the behavioral response^46. The area under the curve (AUC) corresponding to CPS-WST1,2 was calculated using the trapezoidal rule. Paw edema was induced in mice by injection into the right hind paws of 50 μL of sterile saline containing 1% λ-carrageenan. Paw volumes were measured using a plethysmometer (Ugo Basile, Milan, Italy). […] Rimonabant and AM630 (1 mg kg^−1, i.p.) were injected 30 min before carrageenan. Mechanical hyperalgesia was assessed by measuring the latency(s) to withdraw the paw from a constant mechanical pressure exerted onto its dorsal surface. A 15-g calibrated glass cylindrical rod (diameter=10 mm) chamfered to a conical point (diameter=3 mm) was used to exert the mechanical force. The weight was suspended vertically between two rings attached to a stand and was free to move vertically. A cutoff time of 3 min was used. Thermal hyperalgesia was assessed as described^47, measuring the latency to withdraw the hind paw from a focused beam of radiant heat (thermal intensity: infrared 3.0) applied to the plantar surface, using a commercial apparatus (Ugo Basile, Varese, Italy). The cutoff time was set at 30 s. Mechanical allodynia was assessed by applying a graded force to the plantar hind paw surface with a Von Frey filament, using a Dynamic Plantar Anesthesiometer (Ugo Basile). The cutoff force was set at 50 g.

[2] = target: FAAH (Mus musculus (Mouse), UniProt O08914); assay: FAAH inhibition ex vivo after systemic administration in mice; details: for inhibition at 1 mg/kg: mouse, ip, ex vivo 1 h after a single injection in mice (1 mg-kg^-1, i.p.); for ability to access the brain after systemic administration: mice, 1 mg-kg^-1, i.p.
Protocol: Drug preparation for in vivo experiments Drugs were dissolved in polyethylene glycol 400/Tween-80/saline (1/1/18; by volume) and administered by i.p. (5-10 mL-kg^−1) or s.c. injection (10 mL-kg^−1).

[3] = target: rat brain FAAH (Rattus norvegicus (Rat), UniProt P97612); details: membrane preparation of rat brain
Description: Enzyme assays. We conducted standard FAAH and monoacylglycerol lipase assays as described^15,37, using as substrates [^3H]-anandamide (a gift of the National Institute on Drug Abuse) and 2-oleoyl-sn-glycerol (Nu-Check Prep, Elysian, Minn.), respectively.

[4] = system: Fos protein; assay: Formalin-induced Fos expression in lumbar spinal cord; type: in vivo; details: rats, 2 mg-kg^-1, i.p., administered without URB937
Protocol: Fos expression. We measured Fos protein levels by quantitative immunocytochemistry^5 on slices of lumbar (L4/L5) spinal cord from male Sprague-Dawley rats.
Fos immunohistochemistry Two hours after formalin injection into the dorsal paw, rats received a lethal dose of Nembutal (50 mg-mL^−1). They were perfused through the heart with 100 mL of 1% heparinized phosphate buffered saline (PBS) followed by 300 mL of ice-cold 4% paraformaldehyde. The lumbar-sacral region of the spinal cord was collected from each rat. Spinal cords were post fixed in 4% paraformaldehyde at 4° C. for 24 h and then cryoprotected in 30% sucrose at 4° C. for 24-48 hours. Spinal cords were cryostat-cut into 40 μm transverse sections at the level of the lumbar enlargement (L4/L5). Free floating alternating sections were kept in a series of wells filled with PBS. Every fourth section was processed for Fos immunoreactivity to ensure that the same cell would not be counted twice. Endogenous peroxidases were inactivated by incubation in hydrogen peroxide. […]
Selection of sections and quantification of the number of Fos-positive cells was performed by an observer blinded to experimental conditions. […] Using Image J, Fos expressing cells were counted in each subdivision, regardless of staining intensity, by an observer blinded to experimental treatments.

[5] = brain, read-out: FAAH Inhibition in brain (%)
[6] = liver, read-out: FAAH Inhibition in liver (%)

Sequence of rat brain FAAH (P97612 whole entry): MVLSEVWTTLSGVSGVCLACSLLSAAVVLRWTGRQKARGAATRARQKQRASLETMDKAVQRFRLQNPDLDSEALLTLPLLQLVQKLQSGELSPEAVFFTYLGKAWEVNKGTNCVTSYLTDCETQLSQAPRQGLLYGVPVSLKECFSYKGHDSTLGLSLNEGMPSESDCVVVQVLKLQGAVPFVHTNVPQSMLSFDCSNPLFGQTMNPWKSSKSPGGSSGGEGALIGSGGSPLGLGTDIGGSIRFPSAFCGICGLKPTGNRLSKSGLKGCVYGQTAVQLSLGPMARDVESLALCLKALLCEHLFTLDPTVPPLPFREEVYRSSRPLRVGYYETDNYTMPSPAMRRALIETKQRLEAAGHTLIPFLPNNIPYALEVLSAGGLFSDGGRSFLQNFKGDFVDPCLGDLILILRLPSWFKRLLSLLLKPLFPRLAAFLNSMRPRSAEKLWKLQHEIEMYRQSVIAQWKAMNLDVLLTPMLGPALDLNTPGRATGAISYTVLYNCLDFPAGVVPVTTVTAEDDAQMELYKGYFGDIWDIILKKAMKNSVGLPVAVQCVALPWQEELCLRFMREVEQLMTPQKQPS
Sequence of FAAH (O08914 whole entry): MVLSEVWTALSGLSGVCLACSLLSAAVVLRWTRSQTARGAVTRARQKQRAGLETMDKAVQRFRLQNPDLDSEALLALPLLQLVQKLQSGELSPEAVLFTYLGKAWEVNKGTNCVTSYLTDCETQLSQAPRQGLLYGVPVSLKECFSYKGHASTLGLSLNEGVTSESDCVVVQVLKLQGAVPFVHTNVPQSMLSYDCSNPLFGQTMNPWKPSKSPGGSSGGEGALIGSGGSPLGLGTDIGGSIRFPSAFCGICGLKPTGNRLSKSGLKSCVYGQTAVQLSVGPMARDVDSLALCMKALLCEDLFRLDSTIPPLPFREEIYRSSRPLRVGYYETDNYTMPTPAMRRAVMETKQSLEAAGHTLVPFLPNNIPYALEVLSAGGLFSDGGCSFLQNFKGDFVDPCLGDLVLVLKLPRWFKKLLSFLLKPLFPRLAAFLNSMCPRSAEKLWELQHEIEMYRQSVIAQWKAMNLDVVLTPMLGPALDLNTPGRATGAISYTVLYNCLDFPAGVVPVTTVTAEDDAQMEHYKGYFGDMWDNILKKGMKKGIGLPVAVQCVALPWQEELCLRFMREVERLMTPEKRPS

Row | SMILES | hyperalgesia and allodynia in contralateral (non-injected) paws [1] | inhibition at 1 mg/kg [2, 5] | ability to access the brain after systemic administration [2] | inhibition at 1 mg/kg [2, 6] | IC50 [3] | formalin-induced Fos levels, antagonist without URB937 [4]
1 | COc1ccc(C(=O)c2c(C)n(CCN3CCOCC3)c3cc(I)ccc23)cc1 [AM630, reference compound] | had no effect | – | – | – | – | –
2 | NC(=O)c1cccc(-c2cccc(OC(=O)NC3CCCCC3)c2)c1 [Compound 1a, cyclohexylcarbamic acid 3′-carbamoylbiphenyl-3-yl ester, reference compound] | – | 96.2 ± 0.4% | – | – | – | –
3 | COc1ccc(OC(=O)NC2CCCCC2)cc1-c1cccc(C(N)=O)c1 [Compound 1c] | – | – | readily entered the brain | – | – | –
4 | Cc1ccc(OC(=O)NC2CCCCC2)cc1-c1cccc(C(N)=O)c1 [Compound 1d] | – | 91.9 ± 1.5% | readily entered the brain | 93 ± 1.1% | 20.5 ± 0.6 nM | –
5 | NC(=O)c1cccc(-c2cc(OC(=O)NC3CCCCC3)ccc2F)c1 [Compound 1e] | – | 89.7 ± 1.3% | readily entered the brain | 90.7 ± 1.2% | 49.7 ± 5.8 nM | –
6 | NC(=O)c1cccc(-c2cc(OC(=O)NC3CCCCC3)ccc2N)c1 [Compound 1f] | – | 23.2 ± 2.1% | largely excluded | 92.2 ± 0.6% | 42.5 ± 4.2 nM | –
7 | Cc1c(C(=O)NN2CCCCC2)nn(-c2ccc(Cl)cc2Cl)c1-c1ccc(Cl)cc1 [rimonabant, reference compound] | had no effect | – | – | – | – | did not significantly alter Fos levels
